Drawing on patent US10344060B2 (priority 2013, dated 2019), this text covers Nav1.4/Nav1.7, IC50 and Nav1.6/Nav1.7 for eight compounds.

Several values for one entry are separate records, joined by “and”; a condition that tells them apart may be missing. Equal values may be shown once. Read-outs that look alike come from different tables or passages of the source.

Holding throughout (test): cell-based
Assay [1] concerns the target T1, hNav1.7 (Homo sapiens, UniProt Q15858).
The target of assay [2] is hNav1.5 (Homo sapiens, UniProt Q14524). Particulars: read-out: IC50 (μM) Nav1.5.
The target of assay [3] is T2, hNav1.4 (Homo sapiens, UniProt P35499). The assay is classed as cell-based. Particulars: for IC50: IonWorks Quattro, read-out: IC50 (μM) Nav1.4; for Nav1.4/Nav1.7: ratio of IonWorks Quattro IC50 values. (In general: Patch clamp records ionic current or voltage across a cell membrane.)
T2 sequence (P35499 whole entry): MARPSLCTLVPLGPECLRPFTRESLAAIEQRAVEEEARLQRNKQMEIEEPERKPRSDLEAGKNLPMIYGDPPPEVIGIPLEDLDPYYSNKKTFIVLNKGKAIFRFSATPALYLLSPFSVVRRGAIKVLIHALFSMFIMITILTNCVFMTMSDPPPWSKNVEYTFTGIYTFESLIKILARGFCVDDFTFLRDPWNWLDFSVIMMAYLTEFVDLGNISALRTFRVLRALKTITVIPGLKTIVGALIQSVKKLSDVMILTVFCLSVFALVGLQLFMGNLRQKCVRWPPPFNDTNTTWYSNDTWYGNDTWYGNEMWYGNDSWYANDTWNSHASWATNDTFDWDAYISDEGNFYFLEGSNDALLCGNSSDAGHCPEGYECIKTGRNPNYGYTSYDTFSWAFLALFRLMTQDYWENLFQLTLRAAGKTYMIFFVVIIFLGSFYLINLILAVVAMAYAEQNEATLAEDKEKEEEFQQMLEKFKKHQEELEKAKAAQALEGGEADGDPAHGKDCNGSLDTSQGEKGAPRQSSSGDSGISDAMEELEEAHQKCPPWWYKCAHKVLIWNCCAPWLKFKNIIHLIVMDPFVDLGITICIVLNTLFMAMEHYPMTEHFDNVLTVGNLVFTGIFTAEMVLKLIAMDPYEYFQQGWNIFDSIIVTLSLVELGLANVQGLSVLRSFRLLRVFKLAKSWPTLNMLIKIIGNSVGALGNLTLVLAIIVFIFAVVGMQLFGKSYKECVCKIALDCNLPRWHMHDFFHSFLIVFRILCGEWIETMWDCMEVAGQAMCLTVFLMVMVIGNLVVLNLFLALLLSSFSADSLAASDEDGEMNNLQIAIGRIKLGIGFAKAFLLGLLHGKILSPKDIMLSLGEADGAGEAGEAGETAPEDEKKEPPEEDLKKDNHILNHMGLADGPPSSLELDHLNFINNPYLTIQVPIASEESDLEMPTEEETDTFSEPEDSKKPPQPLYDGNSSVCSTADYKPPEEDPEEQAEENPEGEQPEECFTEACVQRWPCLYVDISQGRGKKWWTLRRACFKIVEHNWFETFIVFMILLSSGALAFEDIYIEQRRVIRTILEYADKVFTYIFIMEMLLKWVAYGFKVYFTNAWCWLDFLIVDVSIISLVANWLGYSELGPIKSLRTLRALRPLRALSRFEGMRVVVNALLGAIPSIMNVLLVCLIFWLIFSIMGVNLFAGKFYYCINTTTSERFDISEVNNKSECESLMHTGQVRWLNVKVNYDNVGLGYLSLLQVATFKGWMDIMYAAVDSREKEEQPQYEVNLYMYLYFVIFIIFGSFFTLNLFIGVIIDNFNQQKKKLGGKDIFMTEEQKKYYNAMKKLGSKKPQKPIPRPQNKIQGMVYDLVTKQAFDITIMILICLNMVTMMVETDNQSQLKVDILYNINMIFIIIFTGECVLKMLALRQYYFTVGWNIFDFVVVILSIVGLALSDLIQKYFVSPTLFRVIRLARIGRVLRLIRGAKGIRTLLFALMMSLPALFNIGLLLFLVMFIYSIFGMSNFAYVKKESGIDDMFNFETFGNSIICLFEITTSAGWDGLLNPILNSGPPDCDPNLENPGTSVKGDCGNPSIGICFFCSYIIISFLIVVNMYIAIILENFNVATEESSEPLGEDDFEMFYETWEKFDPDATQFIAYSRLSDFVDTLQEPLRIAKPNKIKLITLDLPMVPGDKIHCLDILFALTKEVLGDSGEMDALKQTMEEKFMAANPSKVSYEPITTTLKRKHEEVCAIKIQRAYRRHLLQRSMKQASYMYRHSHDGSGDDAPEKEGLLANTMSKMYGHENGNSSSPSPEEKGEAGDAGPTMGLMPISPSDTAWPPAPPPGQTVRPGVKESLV
The target of assay [4] is hNav1.3 (Homo sapiens, UniProt Q9NY46). The settings on record: IonWorks Quattro, read-out: IC50 (μM) Nav1.3.
The target in assay [5] is T1, hNav1.7. The format is cell-based. Particulars: PatchXpress, read-out: PX hNav1.7 Tonic IC50.
Assay [6] has as its target T2, hNav1.4. The assay is classed as cell-based. The settings on record: Table 12; for IC50: PatchXpress, tonic block, read-out: PX hNav1.4 Tonic IC50; for Nav1.4/Nav1.7: ratio of PX tonic IC50 values.
The target of assay [7] is hNav1.6 (Homo sapiens, UniProt Q9UQD0). The assay is classed as cell-based. Particulars: Table 15; for Nav1.6/Nav1.7: ratio of PX tonic IC50 values; for IC50: read-out: PX hNav1.6 Tonic IC50.

T1 sequence (Q15858 whole entry): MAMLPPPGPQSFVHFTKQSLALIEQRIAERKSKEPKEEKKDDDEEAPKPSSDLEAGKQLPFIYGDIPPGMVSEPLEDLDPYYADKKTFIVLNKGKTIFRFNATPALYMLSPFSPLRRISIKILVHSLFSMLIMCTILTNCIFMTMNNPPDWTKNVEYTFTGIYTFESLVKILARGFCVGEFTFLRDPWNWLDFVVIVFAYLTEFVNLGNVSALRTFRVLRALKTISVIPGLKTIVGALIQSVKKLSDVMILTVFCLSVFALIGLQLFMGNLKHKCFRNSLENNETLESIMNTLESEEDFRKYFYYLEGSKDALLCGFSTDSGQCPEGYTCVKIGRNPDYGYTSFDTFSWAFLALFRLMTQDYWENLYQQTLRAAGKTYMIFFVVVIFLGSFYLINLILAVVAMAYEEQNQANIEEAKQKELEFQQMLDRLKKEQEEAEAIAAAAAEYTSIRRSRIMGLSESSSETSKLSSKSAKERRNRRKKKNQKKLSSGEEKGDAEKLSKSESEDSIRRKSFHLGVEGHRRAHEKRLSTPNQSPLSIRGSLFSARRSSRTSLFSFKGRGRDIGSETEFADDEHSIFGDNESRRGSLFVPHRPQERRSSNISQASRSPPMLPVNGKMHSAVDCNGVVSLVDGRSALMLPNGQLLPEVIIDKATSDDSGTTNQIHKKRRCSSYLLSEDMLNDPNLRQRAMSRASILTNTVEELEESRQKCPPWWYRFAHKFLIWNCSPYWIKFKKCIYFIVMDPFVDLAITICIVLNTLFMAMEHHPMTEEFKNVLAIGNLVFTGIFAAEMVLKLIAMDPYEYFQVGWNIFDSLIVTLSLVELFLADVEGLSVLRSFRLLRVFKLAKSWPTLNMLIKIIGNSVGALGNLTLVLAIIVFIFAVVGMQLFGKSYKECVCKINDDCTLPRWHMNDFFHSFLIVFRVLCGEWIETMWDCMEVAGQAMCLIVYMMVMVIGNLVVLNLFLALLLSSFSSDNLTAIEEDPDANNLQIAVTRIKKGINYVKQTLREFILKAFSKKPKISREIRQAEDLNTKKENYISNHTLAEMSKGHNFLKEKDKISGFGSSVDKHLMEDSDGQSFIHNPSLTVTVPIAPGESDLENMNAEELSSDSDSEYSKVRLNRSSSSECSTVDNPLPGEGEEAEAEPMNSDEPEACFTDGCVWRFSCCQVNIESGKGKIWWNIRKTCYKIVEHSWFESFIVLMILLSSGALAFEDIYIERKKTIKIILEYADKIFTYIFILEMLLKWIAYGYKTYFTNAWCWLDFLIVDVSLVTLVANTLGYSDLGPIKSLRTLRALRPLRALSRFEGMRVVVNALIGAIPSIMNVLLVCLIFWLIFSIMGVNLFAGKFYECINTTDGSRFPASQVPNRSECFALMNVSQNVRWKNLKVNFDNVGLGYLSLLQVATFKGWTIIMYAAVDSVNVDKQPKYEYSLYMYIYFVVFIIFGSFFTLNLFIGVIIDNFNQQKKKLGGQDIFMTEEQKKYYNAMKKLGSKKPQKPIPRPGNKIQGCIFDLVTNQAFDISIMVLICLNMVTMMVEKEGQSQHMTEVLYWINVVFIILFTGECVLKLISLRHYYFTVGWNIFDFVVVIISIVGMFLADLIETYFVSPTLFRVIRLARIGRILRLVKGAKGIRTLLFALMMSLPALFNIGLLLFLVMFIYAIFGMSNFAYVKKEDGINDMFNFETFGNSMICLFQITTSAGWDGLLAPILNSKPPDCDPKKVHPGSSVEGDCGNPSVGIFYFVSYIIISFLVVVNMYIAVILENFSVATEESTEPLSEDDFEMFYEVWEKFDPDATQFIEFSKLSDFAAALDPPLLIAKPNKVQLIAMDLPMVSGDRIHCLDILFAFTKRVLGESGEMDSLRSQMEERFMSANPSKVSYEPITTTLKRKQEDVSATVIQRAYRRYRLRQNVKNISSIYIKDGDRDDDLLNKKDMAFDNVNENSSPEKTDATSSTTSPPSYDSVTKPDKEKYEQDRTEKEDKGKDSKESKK

Take `CC[C@H](C)[C@H](NC(=O)CNC(=O)[C@H](CCCCN)NC(=O)[C@H](CCCNC(=N)N)NC(=O)[C@@H]1CSSC[C@@H]2NC(=O)[C@H](C)NC(=O)[C@H](CCCNC(=N)N)NC(=O)[C@H](CCCCN)NC(=O)[C@H](CO)NC(=O)[C@H](CC(=O)O)NC(=O)[C@@H]3CSSC[C@H](NC(=O)[C@H](CCC(=O)O)NC(=O)[C@H](CC(C)C)NC(=O)CNC(=O)[C@H](CCC(=O)O)NC(=O)[C@H](CSSC[C@H](NC(=O)[C@@H](N)Cc4ccc(O)cc4)C(=O)N[C@@H](CCC(N)=O)C(=O)N[C@@H](CCCCN)C(=O)N[C@@H](Cc4c[nH]c5ccccc45)C(=O)N[C@@H](CCSC)C(=O)N[C@@H](Cc4c[nH]c5ccccc45)C(=O)N[C@@H]([C@@H](C)O)C(=O)N3)NC2=O)C(=O)N[C@@H](CCCCN)C(=O)N[C@@H](CC(C)C)C(=O)N[C@@H](Cc2c[nH]c3ccccc23)C(=O)N1)C(N)=O` [compound 134]: the Nav1.4/Nav1.7 in assay [1] (ratio of IonWorks Quattro IC50 values, Nav1.4 over Nav1.7) was 17 and 13. The IC50 in assay [2] was 11.1 µM.
On to `CC[C@H](C)[C@H](NC(=O)[C@H](CCCNC(=N)N)NC(=O)[C@H](CCCCN)NC(=O)[C@H](CCCNC(=N)N)NC(=O)[C@@H]1CSSC[C@@H]2NC(=O)[C@H](C)NC(=O)[C@H](CCCNC(=N)N)NC(=O)[C@H](CCCCN)NC(=O)[C@H](CO)NC(=O)[C@H](CC(=O)O)NC(=O)[C@@H]3CSSC[C@H](NC(=O)[C@H](CCCNC(=N)N)NC(=O)[C@H](CC(C)C)NC(=O)CNC(=O)[C@H](CCC(=O)O)NC(=O)[C@H](CSSC[C@H](NC(=O)[C@@H](N)Cc4ccc(O)cc4)C(=O)N[C@@H](CCC(N)=O)C(=O)N[C@@H](CCCCN)C(=O)N[C@@H](Cc4c[nH]c5ccccc45)C(=O)N[C@@H](CCSC)C(=O)N[C@@H](Cc4c[nH]c5ccccc45)C(=O)N[C@@H]([C@@H](C)O)C(=O)N3)NC2=O)C(=O)N[C@@H](CCCCN)C(=O)N[C@@H](CC(C)C)C(=O)N[C@@H](Cc2c[nH]c3ccccc23)C(=O)N1)C(N)=O` [compound 108], for which the IC50 in assay [2] (IonWorks Quattro, Table 6) is 1.8 µM; in assay [3] (Table 6), 0.14 µM; in assay [4] (Table 6), 0.06 µM.
Turning to `CC[C@H](C)[C@H](NC(=O)[C@@H](NC(=O)[C@H](CCCCN)NC(=O)[C@H](CCCNC(=N)N)NC(=O)[C@@H]1CSSC[C@@H]2NC(=O)[C@H](C)NC(=O)[C@H](CCCNC(=N)N)NC(=O)[C@H](CCCCN)NC(=O)[C@H](CO)NC(=O)[C@H](CC(=O)O)NC(=O)[C@@H]3CSSC[C@H](NC(=O)[C@H](CCCNC(=N)N)NC(=O)[C@H](CC(C)C)NC(=O)CNC(=O)[C@H](CCC(=O)O)NC(=O)[C@H](CSSC[C@H](NC(=O)[C@@H](N)Cc4ccc(O)cc4)C(=O)N[C@@H](CCC(N)=O)C(=O)N[C@@H](CCCCN)C(=O)N[C@@H](Cc4c[nH]c5ccccc45)C(=O)N[C@@H](CCSC)C(=O)N[C@@H](Cc4c[nH]c5ccccc45)C(=O)N[C@@H]([C@@H](C)O)C(=O)N3)NC2=O)C(=O)N[C@@H](CCCCN)C(=O)N[C@@H](CC(C)C)C(=O)N[C@@H](Cc2c[nH]c3ccccc23)C(=O)N1)[C@@H](C)CC)C(=O)O` [compound 1], the IC50 was 0.17 µM in assay [1] (read-out: IC50 (μM) Nav1.7); > 5 µM in assay [2] (IonWorks Quattro, Table 6); 13.1 nM in assay [5] (tonic, Table 11).
Turning to `CC[C@H](C)[C@H](NC(=O)[C@H](CCCCN)NC(=O)[C@H](CCCNC(=N)N)NC(=O)[C@@H]1CSSC[C@@H]2NC(=O)[C@H](C)NC(=O)[C@H](CCCNC(=N)N)NC(=O)[C@H](CCCCN)NC(=O)[C@H](CO)NC(=O)[C@H](CC(=O)O)NC(=O)[C@@H]3CSSC[C@H](NC(=O)[C@H](CCC(=O)O)NC(=O)[C@H](CC(C)C)NC(=O)CNC(=O)[C@H](CCC(=O)O)NC(=O)[C@H](CSSC[C@H](NC(=O)[C@@H](N)Cc4ccc(O)cc4)C(=O)N[C@@H](CCC(N)=O)C(=O)N[C@@H](CCCCN)C(=O)N[C@@H](Cc4c[nH]c5ccccc45)C(=O)N[C@@H](CCSC)C(=O)N[C@@H](Cc4c[nH]c5ccccc45)C(=O)N[C@@H]([C@@H](C)O)C(=O)N3)NC2=O)C(=O)N[C@@H](CCCCN)C(=O)N[C@@H](CC(C)C)C(=O)N[C@@H](Cc2c[nH]c3ccccc23)C(=O)N1)C(=O)N[C@@H](Cc1cn(CCCOCCOCCOCCOCCOCCOCCOCCOCCOCCOCCN)nn1)C(N)=O` [compound 188], the IC50 in assay [2] (IonWorks Quattro, Table 9) is 20.1 µM; in assay [3] (Table 9), > 5 µM; in assay [4] (Table 9), > 5 µM. The Nav1.4/Nav1.7 in assay [3] (Table 9) came out at 1.
As to `C#CC[C@H](N)C(=O)N[C@@H](Cc1ccc(O)cc1)C(=O)N[C@H]1CSSC[C@@H]2NC(=O)[C@@H]3CSSC[C@@H](C(=O)N[C@@H](CCCNC(=N)N)C(=O)N[C@@H](CCCCN)C(=O)N[C@@H](CCC(=O)O)C(=O)N[C@H](C(N)=O)[C@@H](C)CC)NC(=O)[C@H](Cc4c[nH]c5ccccc45)NC(=O)[C@H](CC(C)C)NC(=O)[C@H](CCCCN)NC(=O)[C@H](CSSC[C@H](NC(=O)[C@H]([C@@H](C)O)NC(=O)[C@H](Cc4c[nH]c5ccccc45)NC(=O)[C@H](CCCC)NC(=O)[C@H](Cc4c[nH]c5ccccc45)NC(=O)[C@H](CCCCN)NC(=O)[C@H](CCC(N)=O)NC1=O)C(=O)N[C@@H](CC(=O)O)C(=O)N[C@@H](CO)C(=O)N[C@@H](CCCCN)C(=O)N[C@@H](CCCNC(=N)N)C(=O)N[C@@H](C)C(=O)N3)NC(=O)[C@H](CCCCN)NC(=O)[C@H](CC(C)C)NC(=O)CNC(=O)[C@H](CCC(=O)O)NC2=O` [compound 721], the half-maximal inhibitory concentration (IC50) in assay [5] (Table 12, tonic block) came to 0.519 nM. Moreover, in assay [6], the concentration for half-maximal inhibition (IC50) came to 185 nM and the Nav1.4/Nav1.7 was 357. In assay [7], the Nav1.6/Nav1.7 was 471 and the IC50 turned out to be 245 nM.
For `C#CC[C@H](NC(=O)[C@@H](N)CCC(=O)O)C(=O)N[C@@H](CCC(=O)O)C(=O)N[C@H]1CSSC[C@@H]2NC(=O)[C@@H]3CSSC[C@@H](C(=O)N[C@@H](CCCNC(=N)N)C(=O)N[C@@H](CCCCN)C(=O)N[C@@H](CCC(=O)O)C(=O)N[C@H](C(N)=O)[C@@H](C)CC)NC(=O)[C@H](Cc4c[nH]c5ccccc45)NC(=O)[C@H](CC(C)C)NC(=O)[C@H](CCCCN)NC(=O)[C@H](CSSC[C@H](NC(=O)[C@H]([C@@H](C)O)NC(=O)[C@H](Cc4c[nH]c5ccccc45)NC(=O)[C@H](CCCC)NC(=O)[C@H](Cc4c[nH]c5ccccc45)NC(=O)[C@H](CCCCN)NC(=O)[C@H](CCC(N)=O)NC1=O)C(=O)N[C@@H](CC(=O)O)C(=O)N[C@@H](CCC(=O)O)C(=O)N[C@@H](CCCCN)C(=O)N[C@@H](CCCNC(=N)N)C(=O)N[C@@H](C)C(=O)N3)NC(=O)[C@H](CCCNC(=N)N)NC(=O)[C@H](CC(C)C)NC(=O)CNC(=O)[C@H](CCC(=O)O)NC2=O` [compound 741] the same measures were 5.59 nM, 1680 nM, 302, 1014 and 5660 nM.
As for `CC[C@H](C)[C@H](NC(=O)[C@@H](NC(=O)[C@H](CCCCN)NC(=O)[C@H](CCCNC(=N)N)NC(=O)[C@@H]1CSSC[C@@H]2NC(=O)[C@H](C)NC(=O)[C@H](CCCNC(=N)N)NC(=O)[C@H](CCCCN)NC(=O)[C@H](CO)NC(=O)[C@H](CC(=O)O)NC(=O)[C@@H]3CSSC[C@H](NC(=O)[C@H](CCC(=O)O)NC(=O)[C@H](CC(C)C)NC(=O)CNC(=O)[C@H](CCC(=O)O)NC(=O)[C@H](CSSC[C@H](NC(=O)[C@@H](N)Cc4ccc(O)cc4)C(=O)N[C@@H](CCC(N)=O)C(=O)N[C@@H](CCCCN)C(=O)N[C@@H](Cc4c[nH]c5ccccc45)C(=O)N[C@@H](CCSC)C(=O)N[C@@H](Cc4c[nH]c5ccccc45)C(=O)N[C@@H](Cc4cn(CCCOCCOCCOCCOCCOCCOCCOCCOCCOCCOCCN)nn4)C(=O)N3)NC2=O)C(=O)N[C@@H](CCCCN)C(=O)N[C@@H](CC(C)C)C(=O)N[C@@H](Cc2c[nH]c3ccccc23)C(=O)N1)[C@@H](C)CC)C(N)=O` [compound 171], the IC50 was 18.7 µM in assay [2] (IonWorks Quattro, Table 9); > 5 µM in assay [3] (Table 9); > 5 µM in assay [4] (Table 9). Besides, in assay [3] (Table 9), the Nav1.4/Nav1.7 came to 1.
As to `C#CC[C@H](NC(=O)[C@@H](N)CCC(=O)O)C(=O)N[C@@H](Cc1ccc(O)cc1)C(=O)N[C@H]1CSSC[C@@H]2NC(=O)[C@@H]3CSSC[C@@H](C(=O)N[C@@H](CCCNC(=N)N)C(=O)N[C@@H](CCCCN)C(=O)N[C@@H](CCC(=O)O)C(=O)N[C@H](C(N)=O)[C@@H](C)CC)NC(=O)[C@H](Cc4c[nH]c5ccccc45)NC(=O)[C@H](CC(C)C)NC(=O)[C@H](CCCCN)NC(=O)[C@H](CSSC[C@H](NC(=O)[C@H]([C@@H](C)O)NC(=O)[C@H](Cc4c[nH]c5ccccc45)NC(=O)[C@H](CCCC)NC(=O)[C@H](Cc4c[nH]c5ccccc45)NC(=O)[C@H](CCCCN)NC(=O)[C@H](CCC(N)=O)NC1=O)C(=O)N[C@@H](CC(=O)O)C(=O)N[C@@H](CO)C(=O)N[C@@H](CCCCN)C(=O)N[C@@H](CCCNC(=N)N)C(=O)N[C@@H](C)C(=O)N3)NC(=O)[C@H](CCCNC(=N)N)NC(=O)[C@H](CC(C)C)NC(=O)CNC(=O)[C@H](CCC(=O)O)NC2=O` [compound 707], the 50% inhibitory concentration (IC50) in assay [5] (Table 12, tonic block) turned out to be 0.738 nM; in assay [6], 112 nM; in assay [7], 174 nM. Besides, in assay [6], the Nav1.4/Nav1.7 was 152. In assay [7], the Nav1.6/Nav1.7 was determined as 236.

Usually IC50 stands for the concentration at which inhibition is half-maximal.
